The source of these data is US12448382B2, “Heterocyclic compounds for mediating tyrosine kinase 2 activity” (GUANGZHOU INNOCARE PHARMA TECH CO., LTD., priority 2019, dated 2025).

Test [1] concerns IL-12-induced IFN-γ secretion in NK92 cells. The experiment in a line: Inhibition of IL-12-induced IFN-γ Secretion in NK92 Cells (ELISA). The test is classed as cell-based, human. The note with it: Homo sapiens, 24 hours incubation, 8 concentration points, read-out: IC50 (NK92_IL12/IFNγ). Here is the method: Inhibition of IL-12-induced IFN-γ Secretion in NK92 Cells
The effect of the compounds of the present invention on IFN-γ secretion induced by IL-12 in NK92 cells was evaluated by an enzyme-linked immunosorbent assay (ELISA).
IL-12 receptor is mainly expressed in activated T-cells, NK cells (NK92 is a NK cell line), DC cells, and B-cells. When binding to IL-12, it activates JAK2/TYK2 signal transduction pathway within NK cells and T lymphocytes, thereby inducing secretion of IFN-γ.
(§1) The experimental method is generally described below:
The test compound was dissolved in DMSO to 2.5 mM, followed by a serial 4-fold dilution with DMSO to a minimum concentration of […]. Each concentration was further diluted 50-fold with an FBS-free MEMα medium (Gibco, 12561-056).
NK92 cells (Nanjing Cobioer, CBP60980) were cultured in a complete MEMα medium containing 12.5% FBS (Ausbian, VS500T), 12.5% horse serum (Gibco, 16050-122), 0.02 mM folic acid (Sigma, F8758), 0.2 mM inositol (Sigma, 17850), 0.55 mM β-mercaptoethanol (Gibco, 21985-023), 200 U/mL IL-2 (R&D Systems, 202-1L), and 100 U/mL penicillin (Thermofisher, 15140122). When covering 80-90% of the culture container surface, the cells were dispersed and plated on a 96-well plate (Thermofisher, 167425) with 100,000 cells per well (80 μL of the complete MEMα medium without IL-2). The 96-well plate was then incubated overnight in a 37° C./5% CO2 incubator.
After overnight incubation, 10 μL of the test compound and 10 μL of 50 ng/mL IL-12 (R & D Systems, 219-1L) were added to each well and mix gently, and the 96-well plate was incubated in the 37° C./5% CO2 incubator for additional 24 hours. The plate as centrifuged at 800 rpm for 10 minutes at room temperature and 50 μL of the supernatant from each well was transferred to another 96-well plate (Sigma, CLS3695) coated with anti-IFN-γ antibody. The amount of IFN-γ secretion was detected following the instruction from the Human IFN-γ DuoSet ELISA kit (R & D Systems, DY285B). In the experiment, the group with IL-12 and the test compound being replaced with the MEMα medium was the non-stimulated control group (100% inhibition), and the group with IL-12 and 0.2% DMSO was the stimulated group (0% inhibition). The percentage of inhibition on IL-12 induced IFN-γ secretion in NK-92 cells by the test compound was calculated using the following formula: Percentage of inhibition=100−100*(signalcompound−signalnon-stimulated control)/(signalstimulated control−signalnon-stimulated control)
The IC50 value of the test compound was calculated front 8 concentration points using the XLfit software (ID Business Solutions Ltd., UK) by the following formula: Y=Bottom+(Top−Bottom)/(1+10^((log IC50−X)×slope factor))
(§2) Where Y was the percentage of inhibition, X was the logarithm of the concentration of the test compound, Bottom was the bottom plateau value of the S-shaped curve, Top was the top plateau value of the S-shaped curve, and slope factor was the slope coefficient of the curve.

The target in test [2] is T1, human recombinant JAK2 protein (Homo sapiens, UniProt O60674).
T1 construct: purchased Carna Biosciences 08-045
The test can be described thus: JAK2 Inhibition Assay (HTRF kinase assay). In kind it is biochemical. The conditions noted are these: human recombinant JAK2, 2.5 μM ATP substrate solution. Here is the method:
The effect of the compounds of the present invention on the enzymatic activity of JAK2 was assessed by detecting the substrate phosphorylation level in a kinase reaction using the HTRF kinase assay detection kit (Cisbio, Cat. No. 62TK0PEC).
as §1
A reaction buffer contained the following components: an enzyme reaction buffer (1×), 5 mM MgCl2, 1 mM DTT and 0.01% Brij35 from the kit. A JAK2 kinase solution contained a human recombinant JAK2 protein (Carna Biosciences, 08-045) diluted in the reaction buffer to 0.15 ng/μL. A substrate reaction solution contained 2.5 μM ATP and 0.25 μM of a biotinylated tyrosine kinase substrate from the kit in the reaction buffer. A detection solution contained 0.1 ng/μL Eu^3+-labeled cage antibody (Cisbio, 61T66KLB) and 12.5 nM streptavidin-labeled XL665 (Cisbio, 610SAXLB) in the reaction buffer.
(§3) The test compound was dissolved in DMSO to 10 μM, followed by a serial 4-fold dilution with DMSO to a minimum concentration of 0.061 nM. Each concentration was further diluted 40-fold with the reaction buffer.
To a 384-well assay plate (Corning, 3674) were added 4 μL of compound solution and 2 μL of JAK2 kinase solution. The mixture was mixed and incubated at room temperature for 15 minutes, and then added with 4 μL of the substrate reaction solution. After further incubation at room temperature for 30 minutes, the reaction mixture was added with an equal volume of 10 μL detection solution and allowed to stand at room temperature for 30 minutes. An Envision plate reader (Perkin Elmer) was then used to measure the progress of the reaction at 620 nm and 665 nm. The ratio of absorbances at 665 nm and 620 nm was positively correlated with the degree of substrate phosphorylation, therefore the activity of JAK2 kinase was detected. In the experiment, the group without JAK2 kinase protein was treated as the 100% inhibition group, and the group with JAK2 kinase protein but not the test compound was treated as the 0% inhibition group. The percentage of inhibition on JAK2 kinase activity by the test compound was calculated using the following formula: Percentage of inhibition=100−100*(ratiocompound−ratio100% inhibition)/(ratio0% inhibition−ratio100% inhibition)
The IC50 value of the test compound was calculated from 8 concentration points using the XLfit softwere (ID Business Solutions Ltd., UK) by the following formula: Y=Bottom+(Top−Bottom)/(1+10^((log IC50−X)×slope factor))
Where Y was the percentage of inhibition, X was the logarithm of the concentration of the test compound. Bottom was the bottom plateau value of the S-shaped curve, Top was the top plateau value of the S-shaped curve, and slope factor was the slope coefficient of the curve.
For orientation: TR-FRET usually uses a lanthanide donor and a delayed reading to cut background.

Test [3] has as its target T2, human recombinant TYK2 protein (Homo sapiens, UniProt P29597).
T2 construct: purchased Carna Biosciences 08-147
T2 sequence (P29597 871-1187 limits assumed): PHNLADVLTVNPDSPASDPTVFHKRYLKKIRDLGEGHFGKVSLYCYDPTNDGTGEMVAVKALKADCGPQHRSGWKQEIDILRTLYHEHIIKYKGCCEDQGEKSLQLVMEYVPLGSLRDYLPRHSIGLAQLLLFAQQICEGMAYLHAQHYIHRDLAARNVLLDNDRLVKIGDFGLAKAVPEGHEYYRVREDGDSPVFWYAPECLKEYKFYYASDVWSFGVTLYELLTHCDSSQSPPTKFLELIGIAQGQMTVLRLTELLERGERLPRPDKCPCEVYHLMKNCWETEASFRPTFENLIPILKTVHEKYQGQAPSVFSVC
The test can be described thus: TYK2 Inhibition Assay (HTRF kinase assay). The test is classed as biochemical. The note with it: human recombinant TYK2, 11.25 μM ATP substrate solution. Here is the method:
The effect of the compounds of the present invention on the enzymatic activity of TYK2 was assessed by detecting the substrate phosphorylation level in a kinase reaction using the HTRF kinase assay detection kit (Cisbio, Cat. No. 62TK0PEC).
as §1
A reaction buffer contained the following components: an enzyme reaction buffer (1×), 5 mM MgCl2 mM DTT and 0.01% Brij35 from the kit. A TYK2 kinase solution contained human recombinant TYK2 protein (Carna Biosciences, 08-147) diluted in the reaction buffer to 0.25 ng/μL. A substrate reaction solution contained 11.25 μM ATP and 0.5 μM of a biotinylated tyrosine kinase substrate from the kit in the reaction buffer. A detection solution contained 0.1 ng/μL Eu^3+-labeled cage antibody (Cisbio, 61T66KLB) and 25 nM streptavidin-1 added XL665 (Cisbio, 610SAXLB) in the reaction buffer.
as §3
To a 384-well assay plate (Corning, 3674) were added 4 μL of compound solution and 2 μL of TYK2 kinase solution. The mixture was mixed and incubated at room temperature for 15 minutes, and then added with 4 μL of the substrate reaction solution. After further incubation at room temperature for 40 minutes, the reaction mixture was added with an equal volume of 10 μL detection solution and allowed to stand at room temperature for 30 minutes. An Envision plate reader (Perkin Elmer) was then used to measure the progress of the reaction at 620 nm and 665 nm. The ratio of absorbances at 665 nm and 620 nm was positively correlated with the degree of substrate phosphorylation, therefore the activity of TYK2 kinase was detected. In the experiment, the group without TYK2 kinase protein was treated as the 100% inhibition group, and the group with TYK2 kinase protein but not the test compound was treated as the 0% inhibition group. The percentage of inhibition on TYK2 kinase activity by the test, compound was calculated using the following formula: Percentage of inhibition=100−100*(ratiocompound−ratio100% inhibition)/(ratio0% inhibition−ratio100% inhibition)
The IC50 value of the test compound was calculated from 8 concentration points using the XLfit software (ID Business Solutions Ltd., UK) by the following formula: Y=Bottom+(Top−Bottom)/(1+10^((log IC50−X)slope factor))
as §2

T1 sequence (O60674 826-1132 limits assumed): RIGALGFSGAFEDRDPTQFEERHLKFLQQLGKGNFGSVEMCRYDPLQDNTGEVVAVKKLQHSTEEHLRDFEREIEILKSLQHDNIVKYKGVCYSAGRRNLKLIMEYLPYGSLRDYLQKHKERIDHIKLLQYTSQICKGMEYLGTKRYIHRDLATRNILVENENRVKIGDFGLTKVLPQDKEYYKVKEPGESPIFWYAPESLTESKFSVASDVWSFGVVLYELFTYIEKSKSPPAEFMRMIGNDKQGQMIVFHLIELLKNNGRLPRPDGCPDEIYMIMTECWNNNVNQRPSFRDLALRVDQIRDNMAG

For the molecule `Cn1cc(Nc2ncc(Cl)c(N3C[C@]4(C)CN(CC5CC5)C[C@]4(C)C3)n2)cn1` [Compound 84, 5-chloro-4-((3aR,6aS)-5-(cyyclopropylmethyl)-3a,6a-dimethylhexahydropyrrolo[3,4-c]pyrrol-2(1H)-yl)-N-(1-methyl-1H-pyrazol-4-yl)pyrimidin-2-amine], the IC50 in test [1] amounted to 8750 nM; in test [2], 477 nM; in test [3], 186 nM.

As to `C[C@@]12CN(C(=O)[C@@H]3CC3(F)F)C[C@]1(C)CN(c1nc(Nc3cn[nH]c3)ncc1Cl)C2` [Compound 29, ((3aR,6aS)-5-(2((1H-pyrazol-4-yl)amino)-5-chloropyrimidin-4-yl)-3a,6a-dimethylhexahydropyrrolo[3,4-c]pyrrol-2(1H)-yl)((S)-2,2-difluorocyclopropyl)methanone], the IC50 in test [1] stood at 380 nM; in test [2], 0.5 nM; in test [3] it was 0.4 nM.

For `Cc1cc(CN2C[C@@]3(C)CN(c4nc(Nc5cnn(C)c5)ncc4Cl)C[C@@]3(C)C2)on1` [Compound 78, 5-chloro-4-((3aR,6aS)-3a,6a-dimethyl-5-((3-methylisoxazol-5-yl)methyl)hexahydropyrrolo[3,4-c]pyrrol-2(1H)-yl)-N-(1-methyl-1H-pyrazol-4-yl)pyrimidin-2-amine], the IC50 in test [1] came to 2760 nM; in test [2], 7.6 nM; in test [3], 4.2 nM.

In the case of `C[C@@]12CN(C(=O)C3CC3)C[C@]1(C)CN(c1nc(Nc3cnn(C(F)F)c3)ncc1Cl)C2` [Compound 30, ((3aR,6aS)-5-(5-chloro-2-((1-(difluoromethyl)-1H-pyrazol-4-yl)amino)pyrimidin-4-yl)-3a,6a-dimethylhexahydropyrrolo[3,4-c]pyrrol-2(1H)-yl)(cyclopropyl)methanone], the IC50 in test [1] was 1210 nM; in test [2] it was 4.6 nM; in test [3], 1.4 nM.

`CNC(=O)c1ccc(Nc2ncc(Cl)c(N3C[C@]4(C)CN(C(=O)C5CC5)C[C@]4(C)C3)n2)cn1` [Compound 51, 5-((5-chloro-4-((3aR,6aS)-5-(cyclopropanecarbonyl)-3a,6a-dimethylhexahydropyrrolo[3,4-c]pyrrol-2(1H)-yl)pyrimidin-2-yl)amino)-N-methylpicolinamide]: the IC50 in test [1] was 597 nM; in test [2], 7.3 nM; in test [3], 2.7 nM.

For the molecule `Cn1cc(Nc2ncc(Cl)c(N3C[C@]4(C)CN(C(=O)C(C)(C)O)C[C@]4(C)C3)n2)cn1` [Compound 44, 1-((3aR,6aS)-5-(5-chloro-2((1-methyl-1H-pyrazol-4-yl)amino)pyrimidin-4-yl)-3a,6a-dimethylhexahydropyrrolo[3,4-c]pyrrol-2(1H)-yl)-2-hydroxy-2-methylpropan-1-one], the values for the IC50 in test [1], in test [2] and in test [3] were 3620 nM, 20 nM and 8.6 nM, respectively.

For `Cc1cnc(Nc2cnn(C)c2)nc1N1C[C@]2(C)CN(C(=O)[C@@H]3CC3(F)F)C[C@]2(C)C1` [Compound 56, ((S)-2,2-difluorocyclopropyl)((3aR,6aS)-3a,6a-dimethyl-5-(5-methyl-2-((1-methyl-1H-pyrazol-4-yl)amino)pyrimidin-4-yl)hexahydropyrrolo[3,4-c]pyrrol-2(1H)-yl)methanone], the IC50 in test [1] was determined as 505 nM; in test [2], 2.5 nM; in test [3], 1.7 nM.

Consider `Cn1cc(Nc2ncc(Cl)c(N3C[C@]4(C)CN(Cc5ccno5)C[C@]4(C)C3)n2)cn1` [Compound 50, 5-chloro-4-((3aR,6aS)-5-(isoxazol-5-ylmethyl)-3a,6a-dimethylhexahydropyrrolo[3,4-c]pyrrol-2(1H)-yl)-N(1-methyl-1H-pyrazol-4-yl)pyrimidin-2-amine], for which the figures for the IC50 in test [1], in test [2] and in test [3] were 43 nM, 0.1 nM and 0.3 nM, respectively.
